Assay [1] concerns Aβ40 in conditioned medium of cells expressing amyloid precursor protein. Description: In vitro BACE cell-based assay (HEK cell assay, Aβ40 sandwich ELISA). As to conditions: Homo sapiens, HEK293; average IC50; Aβ40 after 24 h incubation. In general terms: In an ELISA, binding on a coated surface is turned into a signal by an enzyme label.
Another assay deals with amyloid beta peptide. The assay can be described thus: In vivo inhibition of beta-secretase (CSF and brain abeta reduction). As to conditions: rat, PD dose of 10 mg/kg, after 4 hrs. An excerpt:
Several animal models, including mouse, rat, dog, and monkey, may be used to screen for inhibition of beta-secretase activity in vivo following administration of a test compound sample. Animals used in this invention can be wild type, transgenic, or gene knockout animals. For example, the Tg2576 mouse model, prepared and conducted as described in Hsiao et al., 1996, Science 274, 99-102, and other non-transgenic or gene knockout animals are useful to analyze in vivo inhibition of Amyloid beta peptide (Abeta) production in the presence of inhibitory test compounds. Generally, 2 to 18 month old Tg2576 mice, gene knockout mice or non-transgenic animals are administered test compounds formulated in vehicles, such as cyclodextran, phosphate buffers, hydroxypropyl methylcellulose or other suitable vehicles. One to twenty-four hours following the administration of compound, animals are sacrificed, and brains as well as cerebrospinal fluid (CSF) and plasma are removed for analysis of A-beta levels and drug or test compound concentrations (Dovey et al., 2001, Journal of Neurochemistry, 76,173-181) Beginning at time 0, animals are administered by oral gavage, or other means of delivery such as intravenous injection, an inhibitory test compound of up to 100 mg/kg in a standard, conventional formulation, such as 2% hydroxypropyl methylcellulose, 1% Tween80. A separate group of animals receive 2% hydroxypropyl methylcellulose, 1% Tween80 alone, containing no test compound, and serve as a vehicle-control group. At the end of the test period, animals are sacrificed and brain tissues, plasma or cerebrospinal fluid are collected. Brains are either homogenized in 10 volumes (w/v) of 0.2% diethylamine (DEA) in 50 mM NaCl (Best et al., 2005, Journal of Pharmacology and Experimental Therapeutics, 313, 902-908), or in 10 volumes of 0.5% TritonX-100 in Tris-buffered saline (pH at about 7.6). Homogenates are centrifuged at 355,000 g, 4° C. for 30 minutes. CSF or brain supernatants are then analyzed for the presence of A-beta peptide by specific sandwich ELISA assays based on ECL (Electrochemiluminescence) technology. For example, rat Abeta40 is measured using biotinylated-4G8 (Signet) as a capture antibody and Fab40 (an in-house antibody specific to the C-terminal of Abeta40) as a detection antibody. For example, 4 hours after administration of 30 mg/kg oral dose of the test compound in 2% hydroxypropyl methylcellulose, 1% Tween80 (pH2.2) to 200 g male Sprague Dawley rats, amyloid beta peptide levels are measured for reduction by X % and Y % in cerebrospinal fluid and brain, respectively, when compared to the levels measured in the vehicle-treated or control mice.
Actual vehicles used: Oral: 2% HPMC, 1% Tween80, pH 2.2 […]

The next assay has as its target BACE1 (Homo sapiens, UniProt P56817). Description: In vitro enzymatic BACE FRET assay. The class given is biochemical. Here is the method:
In Vitro Enzymatic BACE FRET (fluorescence resonance energy transfer) Assay (Enzyme Assay data in the Example Table I)
The assay buffer used in this screen is 0.05 M acetate, pH 4.2, 10% DMSO final, 100 uM genapol (which is a nonionic detergent, below its Critical Micelle Concentration). […] This assay is effectively started by the addition of FRET substrate (50 nM) and the combination is incubated for one hour. The FRET assay is terminated with by addition of Tris buffer, which raises the pH to neutrality, and the fluorescence is determined. The FRET substrate is a peptide with commercially available fluorophore and quencher, on opposite sides of the BACE cleavage site. Proteolytic cleavage of the FRET substrate releases quenching of fluorescence (excitation […] and […]).

Structures are written as SMILES.

This is an account of results in patent US8921363B2, “Derivatives of 1 H-isoindol-3-amine, 1 H-iso-aza-indol-3amine, 3,4-dihydroisoquinolin-1-amine, and 1,4-dihydroisoquinolin-3-amine as beta-secretase inhibitors” (Amgen Inc., priority 2010, dated 2014).

The term IC50 denotes the midpoint of a concentration-inhibition curve.

Sequence of BACE1 (P56817 46-501): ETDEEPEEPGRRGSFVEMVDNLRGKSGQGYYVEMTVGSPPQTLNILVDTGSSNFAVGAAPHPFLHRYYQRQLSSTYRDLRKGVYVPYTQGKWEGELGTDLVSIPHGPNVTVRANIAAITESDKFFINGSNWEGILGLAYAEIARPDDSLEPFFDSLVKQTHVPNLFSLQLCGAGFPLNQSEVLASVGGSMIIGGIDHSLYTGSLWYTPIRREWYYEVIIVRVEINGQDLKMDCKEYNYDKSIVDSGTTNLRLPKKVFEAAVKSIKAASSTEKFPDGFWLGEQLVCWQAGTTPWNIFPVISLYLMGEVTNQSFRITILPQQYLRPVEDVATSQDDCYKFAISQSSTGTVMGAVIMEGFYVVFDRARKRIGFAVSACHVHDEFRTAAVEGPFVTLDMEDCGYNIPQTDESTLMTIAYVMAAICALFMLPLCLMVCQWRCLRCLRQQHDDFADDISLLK

With `NC1=N[C@]2(c3cc(-c4cccnc4F)ccc3Oc3c2cc(C2=CCCOC2)nc3F)c2ccccc21` (single isomer, unassigned) [Example 7-B], in assay [1], the midpoint of inhibition, the IC50, lay at 5 nM. In the assay with amyloid beta peptide, this molecule yielded a CSF abeta reduction of 7% and a brain abeta reduction of 10%. Further, the half-inhibitory concentration (IC50) on BACE1 worked out at 0.5 nM.

`NC1=N[C@]2(c3cc(-c4cccnc4F)ccc3Oc3c2cc(-c2ccnc(F)c2)nc3F)c2cccnc21` [Example 17e, (S)-1-fluoro-7-(2-fluoropyridin-3-yl)-3-(2-fluoropyridin-4-yl)spiro[chromeno[2,3-c]pyridine-5,5′-pyrrolo[3,4-b]pyridin]-7′-amine]: in assay [1], the IC50 was 7 nM. Moreover, in the assay with amyloid beta peptide, the CSF abeta reduction is reported as 41% and the brain abeta reduction is listed as 28%. Moreover, at BACE1, the IC50 is 0.7 nM.

On to `NC1=NC2(c3ccccc3O1)c1cc(-c3cccnc3F)ccc1Oc1cnc(C3=CCCOC3)cc12` (racemic) [Example 18, 3′-(5,6-dihydro-2H-pyran-3-yl)-7′-(2-fluoropyridin-3-yl)spiro[benzo[e][1,3]oxazine-4,5′-chromeno[2,3-c]pyridin]-2-amine], for which the IC50 was 122 nM in assay [1] and 2 nM on BACE1.

Consider `NC1=NC2(c3cc(-c4cccnc4F)ccc3Oc3cnc(-c4ccnc(F)c4)cc32)c2ncccc2O1` (stereo not shown) [Example 22, 7-(2-fluoropyridin-3-yl)-3-(2-fluoropyridin-4-yl)spiro[chromeno[2,3-c]pyridine-5,4′-pyrido[2,3-e][1,3]oxazin]-2′-amine], for which the IC50 turned out to be 805 nM in assay [1] and 9.9 nM on BACE1.

Turning to `NC1=NC2(c3cc(Br)ccc3Oc3c2cc(Cl)nc3F)c2cccnc21` (stereo not shown) [Example 17c, 7-bromo-3-chloro-1-fluorospiro[chromeno[2,3-c]pyridine-5,5′-pyrrolo[3,4-b]pyridin]-7′-amine], the IC50 (in assay [1]; at BACE1) was > 10000 nM in each case.

As for `NC1=NC2(c3cc(Br)ccc3Oc3cnc(Cl)cc32)c2ccncc21` (stereo not shown) [Example 16, 7-bromo-3-chlorospiro[chromeno[2,3-c]pyridine-5,1′-pyrrolo[3,4-c]pyridin]-3′-amine], the half-maximal inhibitory concentration (IC50) in assay [1] was > 10000 nM; on BACE1 it was 9090 nM.

Turning to `NC1=N[C@@]2(c3cc(-c4cccnc4F)ccc3Oc3cnc(-c4cccnc4F)cc32)c2ccccc21` (single isomer, unassigned) [Example 10-D], the IC50 (in assay [1]; on BACE1) was > 10000 nM throughout.

Regarding `NC1=NC2(c3cc(Br)ccc3Oc3cnc(Cl)cc32)c2ccccc21` (racemic) [Example 10c, 7-bromo-3-chlorospiro[chromeno[2,3-c]pyridine-5,1′-isoindol]-3′-amine], the IC50 was 64.5 nM in assay [1] and 6940 nM on BACE1.

On to `NC1=NC2(c3cc(-c4cccnc4F)ccc3Oc3c2cc(Cl)nc3F)c2cnccc21` (stereo not shown) [Example 14d, 3-chloro-1-fluoro-7-(2-fluoropyridin-3-yl)spiro[chromeno[2,3-c]pyridine-5,3′-pyrrolo[3,4-c]pyridin]-1′-amine], for which the values for the concentration for half-maximal inhibition (IC50) (in assay [1]; on BACE1) were 771 nM and 3.7 nM, respectively.

Take `NC1=NC2(c3cc(-c4cccnc4F)ccc3Oc3cnc(Cl)cc32)c2ncccc2O1` (racemic) [Example 21, 3-chloro-7-(2-fluoropyridin-3-yl)spiro[chromeno[2,3-c]pyridine-5,4′-pyrido[2,3-e][1,3]oxazin]-2′-amine]: the results for the half-maximal inhibitory concentration (IC50) (in assay [1]; at BACE1) were > 10000 nM and 370 nM, respectively.

Take `NC1=NC2(c3cc(-c4cccnc4F)ccc3Oc3c2cc(N2CCC(F)(F)C2)nc3F)c2ccccc21` (racemic) [Example 9, 3-(3,3-difluoropyrrolidin-1-yl)-1-fluoro-7-(2-fluoropyridin-3-yl)spiro[chromeno[2,3-c]pyridine-5,1′-isoindol]-3′-amine]: the concentration for half-maximal inhibition (IC50) in assay [1] was 27 nM; on BACE1 it was 5.3 nM.

Regarding `NC1=NC2(c3cc(-c4cccnc4F)ccc3Oc3c2cc(-c2ccnc(F)c2)nc3F)c2ncccc21` (racemic) [Example 15, 1-fluoro-7-(2-fluoropyridin-3-yl)-3-(2-fluoropyridin-4-yl)spiro[chromeno[2,3-c]pyridine-5,7′-pyrrolo[3,4-b]pyridin]-5′-amine], the IC50 was 11 nM in assay [1] and 1 nM at BACE1.

For `NC1=N[C@@]2(c3cc(-c4cccnc4F)ccc3Oc3c2cc(Cl)nc3F)c2cccnc21` [Example 17d-1, (R)-3-chloro-1-fluoro-7-(2-fluoropyridin-3-yl)spiro[chromeno[2,3-c]pyridine-5,5′-pyrrolo[3,4-b]pyridin]-7′-amine], the IC50 (in assay [1]; at BACE1) was > 10000 nM in each case.

For `NC1=N[C@@]2(c3cc(Br)ccc3Oc3c2cc(Cl)nc3F)c2cnccc21` (single isomer, unassigned) [Example 14c-1], the 50% inhibitory concentration (IC50) (in assay [1]; on BACE1) was > 10000 nM throughout.

Consider `CC(C)(C)C#Cc1cc2c(cn1)Oc1ccc(-c3cccnc3F)cc1C21N=C(N)c2ccccc21` (racemic) [Example 13, 3-(3,3-dimethylbut-1-ynyl)-7-(2-fluoropyridin-3-yl)spiro[chromeno[2,3-c]pyridine-5,1′-isoindol]-3′-amine], for which the concentration for half-maximal inhibition (IC50) in assay [1] worked out at 70 nM; on BACE1, 6 nM.
